The numbers were not newly measured in patent US10206391B2, “Strobilurin formulations” (priority 2011, dated 2019), which cites them from elsewhere.

Experiment in data set [1]: not given
The source holds these as a separate data set.

Experiment in data set [2]: not given
This is another data set of the same source.

Experiment in data set [3]: not given
This is another data set of the same source.

For data set [4], the system named is plants.

Molecules are shown by their SMILES. Values after ≈ are worked out from the molar mass of the structure shown. Like-named read-outs stand apart in the source and are kept apart here. Where only a bound is given, the exact number is not on record here.

On to `CNC(=O)/C(=N/OC)c1ccccc1COc1cc(C)ccc1C` [Dimoxystrobin, (E)-2-(methoxyimino)-N-methyl-2-[α-(2,5-xylyloxy)-o-tolyl]acetamide], for which, under “water, pH 7”, the “DT50 for aqueous photolysis” value is given as “DT50 for aqueous photolysis 30 days, pH7”. Further, in data set [1] (pH 4-9, 50° C.), the “Time stable in aqueous solution” value was “Stable >30 d in aqueous solution at pH 4-9, 50 °C”. In data set [2] (20° C.), the “Solubility in DMF” value is 200 to 250 mg/mL, the Solubility in acetone was 67 to 80 mg/mL, the Solubility in acetonitrile is 50 to 57 mg/mL and the Solubility in dichloromethane was more than 250 mg/mL. Also, in data set [2] (20° C.), the “Solubility in ethyl acetate” value was 33 to 40 mg/mL; the Solubility in isopropanol entry is “isopropanol, n-heptane, n-octanol and olive oil all <10 g/l”; the Solubility in methanol is 20 to 25 mg/mL; the Solubility in n-heptane entry is “isopropanol, n-heptane, n-octanol and olive oil all <10 g/l”. Besides, in data set [2] (20° C.), the “Solubility in n-octanol (octanol)” value is “isopropanol, n-heptane, n-octanol and olive oil all <10 g/l”; the “Solubility in olive oil” value was “isopropanol, n-heptane, n-octanol and olive oil all <10 g/l”; the Solubility in toluene was 20 to 25 mg/mL. The Solubility in water in data set [2] (pH 5.7, 20° C.) was 0.0043 mg/mL (≈ 0.0132 mM). Also, the Solubility in water in data set [2] (pH 8.0, 20° C.) was 0.0035 mg/mL (≈ 0.0107 mM). Besides, the “KOW logP” value in data set [3] (pH 6.5) is “logP = 3.59”. The “Metabolic stability in plants and xylem systemicity (in words)” value (“Metabolic stability” for short) in data set [4] (plant tissues) was “metabolically sufficiently stable in plants and show a pronounced xylem systemicity”.

For `CC1(c2ccc(Oc3ccccc3)cc2)OC(=O)N(Nc2ccccc2)C1=O` (centres unmarked) [Famoxadone, 3-anilino-5-methyl-5-(4-phenoxyphenyl)-1,3-oxazolidine-2,4-dione], the “DT50 for aqueous photolysis” value was 4.6 days (pH 5) and 1.9 days (water, pH 7). Further, the “DT50 in water with light” value in data set [1] (pH 5, 25° C.) is listed as 4.6 d (pH 5, 25° C.). Moreover, the “DT50 in water with no light” value in data set [1] (pH 5, 25° C.) is 41 days; in data set [1] (pH 7, 25° C.), 2 days; in data set [1] (pH 9, 25° C.), 0.0646 d (pH 9) (25° C.); in water with light, DT50. For the same compound, the “KOW logP” value in data set [3] (pH 7) is given as “logP = 4.65”.

With `CO/N=C(/C1=NOCCO1)c1ccccc1Oc1ncnc(Oc2ccccc2Cl)c1F` [Fluxastrobin, (E)-{2-[6-(2-chlorophenoxy)-5-fluoropyrimidin-4-yloxy]phenyl}(5,6-dihydro-1,4,2-dioxazin-3-yl)methanone O-methyloxime], the “Photolytic stability DT50” value (sterile aqueous phosphate buffer, pH 7) is “DT50 3.8-4.1 days in sterile aqueous phosphate”. For the same compound, the “Photolytic stability DT50” value (under solar summer conditions, Phoenix AZ, USA in June) is listed as “buffer, pH 7; 19- 22 days under solar summer”. In addition, the “Hydrolysis DT50” value in data set [1] (pH 4, 7 and 9, 50° C.) is “Hydrolysis DT50 >1 y (pH 4, 7 and 9, 50° C.);”. Also, in data set [2] (20° C.), the Solubility in dichloromethane is more than 250 mg/mL, the Solubility in isopropanol was 6.7 mg/mL (≈ 14.6 mM), the Solubility in n-heptane is 0.04 mg/mL (≈ 0.0872 mM) and the Solubility in xylene was 38.1 mg/mL (≈ 83 mM). Besides, the Solubility in water in data set [2] (pH 7, 20° C.) is 0.00229 mg/mL (≈ 0.00499 mM). Further, the Solubility in water in data set [2] (unbuffered, 20° C.) was 0.00256 mg/mL (≈ 0.00558 mM). In addition, in data set [3] (20° C.), the “KOW logP” value is “logP = 2.86”. Besides, in data set [4] (plant tissues), the “Metabolic stability” value was “metabolically sufficiently stable in plants and show a pronounced xylem systemicity”.

Consider `CO/N=C(/C(=O)OC)c1ccccc1COc1ccccc1C` [Kresoxim-methyl, methyl(E)-methoxyimino[2-(o-tolyloxymethyl)phenyl]acetate], for which the “DT50 for aqueous photolysis” value (water, pH 7) is given as “Photolysis DT50 18.2 days, pH7”. Moreover, in data set [1] (pH 5, text wrapped over r19-r20 reads 'relatively stable at pH 5'), the “Stability (in words)” value is on record as “stable at pH 5”. Also, the “Hydrolysis DT50” value in data set [1] (pH 7) was 816 h; in data set [1] (pH 9), 7 h.

Turning to `CNC(=O)/C(=N/OC)c1ccccc1CO/N=C(C)/C(=N/OC)C(/C)=N/OC` [Orysastrobin, 2[(E)-methoxyimino]-2-[(3E,6E)-2-{5-[(E)-methoxyimino]-4,6-dimethyl-2,8-dioxa-3,7-diazanona-3,6-dienyl}phenyl]-N-methylacetamide], the “DT50 for aqueous photolysis” value (water, pH 7) is given as “Photolysis DT50 0.8 days, pH7”. Besides, the Solubility in water result in data set [2] (20° C.) is given as “water 80.6 mg/l (20° C.)”. Moreover, the “KOW logP” value in data set [3] (20° C.) is on record as “logP = 2.36”.

As to `CO/C=C(/C(=O)OC)c1ccccc1COc1cccc(C(F)(F)F)n1` [Picoxystrobin, methyl(E)-3-methoxy-2-[2-(6-trifluoromethyl-2-pyridyloxymethyl)phenyl]acrylate], the “DT50 for aqueous photolysis” value (water, pH 7) was “DT50 for aqueous photolysis 21 days, pH7”. In data set [1] (pH 9, 50° C.), the DT50 was approximately 15 days. Besides, the “Metabolic stability” value in data set [4] (in vivo) was “metabolically sufficiently stable in plants and show a pronounced xylem systemicity”.

In the case of `COC(=O)N(OC)c1ccccc1COc1ccn(-c2ccc(Cl)cc2)n1` [Pyraclostrobin, methyl N-{2-[1-(4-chlorophenyl)pyrazol-3-yloxymethyl]phenyl}(N-methoxy)carbamate], under “water, pH 7”, the “DT50 for aqueous photolysis” value is on record as “Photolysis DT50 in water 1.7 days, pH7”. The Time stable entry in data set [1] (pH 5-7, 25° C.) is listed as “Stable >30 d (pH 5-7, 25° C.)”. Moreover, in data set [2] (20° C.), the Solubility in acetone entry was “acetonitrile, dichloromethane and toluene >500 (all g/l”; the Solubility in acetonitrile result was “acetonitrile, dichloromethane and toluene >500 (all g/l”; the Solubility in dichloromethane result was “acetonitrile, dichloromethane and toluene >500 (all g/l”; the “Solubility in ethyl acetate” value is “acetonitrile, dichloromethane and toluene >500 (all g/l”. In data set [2] (20° C.), the Solubility in isopropanol was 30.0 mg/mL (≈ 77.4 mM); the Solubility in methanol result is “methanol 100.8, acetone, ethyl acetate, g/l”; the Solubility in n-heptane is 3.7 mg/mL (≈ 9.54 mM); the “Solubility in n-octanol (octanol)” value is 24.2 mg/mL (≈ 62.4 mM). Also, in data set [2] (20° C.), the “Solubility in olive oil” value is 28.0 mg/mL (≈ 72.2 mM); the Solubility in toluene entry is “acetonitrile, dichloromethane and toluene >500 (all g/l”.

Consider `CO/N=C(/C(=O)OC)c1ccccc1CO/N=C(\C)c1cccc(C(F)(F)F)c1` [Trifloxystrobin, methyl(E)-methoxyimino-{(E)-α-[1-(α,α,α-trifluoro-m-tolyl)ethylideneaminooxy]-o-tolyl}acetate], for which the “DT50 for aqueous photolysis” value reads like this: (pH 5) 1.1 days; (water, pH 7) 2.7 days. Besides, the “Stability to hydrolysis (in words)” value in data set [1] (pH 5) was “stable”. Moreover, the “Hydrolysis DT50” value is 11.4 w in data set [1] (pH 7, 20° C.) and 27.1 h in data set [1] (pH 9, 20° C.).
